Results taken from PubChem BioAssay (NCI).
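Protocol summary: plate cells (96-well), add compound at 5 concentrations, incubate 48 h, interpolate endpoints linearly. GI50: concentration for 50% inhibition of growth. TGI marks complete inhibition of growth.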

Tests used:
Test in all cases: NCI-60 cell line screen, 48 h
786-0 renal = tested on: 786-0 renal
A498 renal = tested on: A498 renal
A549 NSCLC = tested on: A549 NSCLC
ACHN renal = tested on: ACHN renal
BT-549 breast = tested on: BT-549 breast
CAKI-1 renal = tested on: CAKI-1 renal
CCRF-CEM leukemia = tested on: CCRF-CEM leukemia
COLO 205 colon = tested on: COLO 205 colon
DU-145 prostate = tested on: DU-145 prostate
HCC-2998 colon = tested on: HCC-2998 colon
HCT-116 colon = tested on: HCT-116 colon
HCT-15 colon = tested on: HCT-15 colon
HL-60(TB) leukemia = tested on: HL-60(TB) leukemia
HOP-62 NSCLC = tested on: HOP-62 NSCLC
HOP-92 NSCLC = tested on: HOP-92 NSCLC
HS 578T breast = tested on: HS 578T breast
HT29 colon = tested on: HT29 colon
IGROV1 ovarian = tested on: IGROV1 ovarian
K-562 leukemia = tested on: K-562 leukemia
KM12 colon = tested on: KM12 colon
LOX IMVI melanoma = tested on: LOX IMVI melanoma
M14 melanoma = tested on: M14 melanoma
MALME-3M melanoma = tested on: MALME-3M melanoma
MCF7 breast = tested on: MCF7 breast
MDA-MB-231 breast = tested on: MDA-MB-231 breast
MDA-MB-435 = tested on: MDA-MB-435
MOLT-4 leukemia = tested on: MOLT-4 leukemia
NCI-H226 lung = tested on: NCI-H226 lung
NCI-H23 lung = tested on: NCI-H23 lung
NCI-H460 lung = tested on: NCI-H460 lung
NCI-H522 lung = tested on: NCI-H522 lung
NCI/ADR-RES ovarian = tested on: NCI/ADR-RES ovarian
OVCAR-3 ovarian = tested on: OVCAR-3 ovarian
OVCAR-4 ovarian = tested on: OVCAR-4 ovarian
OVCAR-5 ovarian = tested on: OVCAR-5 ovarian
OVCAR-8 ovarian = tested on: OVCAR-8 ovarian
PC-3 prostate = tested on: PC-3 prostate
RPMI-8226 leukemia = tested on: RPMI-8226 leukemia
RXF 393 renal = tested on: RXF 393 renal
SF-268 CNS = tested on: SF-268 CNS
SF-295 CNS = tested on: SF-295 CNS
SF-539 CNS = tested on: SF-539 CNS
SK-MEL-2 melanoma = tested on: SK-MEL-2 melanoma
SK-MEL-28 melanoma = tested on: SK-MEL-28 melanoma
SK-MEL-5 melanoma = tested on: SK-MEL-5 melanoma
SK-OV-3 ovarian = tested on: SK-OV-3 ovarian
SN12C renal = tested on: SN12C renal
SNB-19 CNS = tested on: SNB-19 CNS
SNB-75 CNS = tested on: SNB-75 CNS
SR leukemia = tested on: SR leukemia
SW-620 colon = tested on: SW-620 colon
T-47D breast = tested on: T-47D breast
TK-10 renal = tested on: TK-10 renal
U251 CNS = tested on: U251 CNS
UACC-257 melanoma = tested on: UACC-257 melanoma
UACC-62 melanoma = tested on: UACC-62 melanoma
UO-31 renal = tested on: UO-31 renal

Nc1c(C(=O)c2cccc(-c3ccncc3)c2)cnn1-c1ccc(F)cc1
GI50 (786-0 renal): > 25 µM | TGI (786-0 renal): > 25 µM | GI50 (A498 renal): > 25 µM | TGI (A498 renal): > 25 µM | GI50 (A549 NSCLC): > 25 µM | TGI (A549 NSCLC): > 25 µM | GI50 (ACHN renal): > 25 µM | TGI (ACHN renal): > 25 µM | GI50 (BT-549 breast): > 25 µM | TGI (BT-549 breast): > 25 µM | GI50 (CAKI-1 renal): > 25 µM | TGI (CAKI-1 renal): > 25 µM | GI50 (CCRF-CEM leukemia): > 25 µM | TGI (CCRF-CEM leukemia): > 25 µM | GI50 (COLO 205 colon): > 25 µM | TGI (COLO 205 colon): > 25 µM | GI50 (DU-145 prostate): > 25 µM | TGI (DU-145 prostate): > 25 µM | GI50 (HCC-2998 colon): > 25 µM | TGI (HCC-2998 colon): > 25 µM | GI50 (HCT-116 colon): > 25 µM | TGI (HCT-116 colon): > 25 µM | GI50 (HCT-15 colon): > 25 µM | TGI (HCT-15 colon): > 25 µM | GI50 (HL-60(TB) leukemia): > 5.67 µM | TGI (HL-60(TB) leukemia): > 25 µM | GI50 (HOP-62 NSCLC): > 23.3 µM | TGI (HOP-62 NSCLC): > 25 µM | GI50 (HOP-92 NSCLC): > 25 µM | TGI (HOP-92 NSCLC): > 25 µM | GI50 (HS 578T breast): > 25 µM | TGI (HS 578T breast): > 25 µM | GI50 (HT29 colon): > 25 µM | TGI (HT29 colon): > 25 µM | GI50 (IGROV1 ovarian): > 25 µM | TGI (IGROV1 ovarian): > 25 µM | GI50 (K-562 leukemia): > 25 µM | TGI (K-562 leukemia): > 25 µM | GI50 (KM12 colon): > 25 µM | TGI (KM12 colon): > 25 µM | GI50 (LOX IMVI melanoma): > 25 µM | TGI (LOX IMVI melanoma): > 25 µM | GI50 (M14 melanoma): > 25 µM | TGI (M14 melanoma): > 25 µM | GI50 (MALME-3M melanoma): > 25 µM | TGI (MALME-3M melanoma): > 25 µM | GI50 (MCF7 breast): > 25 µM | TGI (MCF7 breast): > 25 µM | GI50 (MDA-MB-231 breast): > 25 µM | TGI (MDA-MB-231 breast): > 25 µM | GI50 (MDA-MB-435): > 25 µM | TGI (MDA-MB-435): > 25 µM | GI50 (MOLT-4 leukemia): > 25 µM | TGI (MOLT-4 leukemia): > 25 µM | GI50 (NCI-H226 lung): > 25 µM | TGI (NCI-H226 lung): > 25 µM | GI50 (NCI-H23 lung): > 25 µM | TGI (NCI-H23 lung): > 25 µM | GI50 (NCI-H460 lung): > 25 µM | TGI (NCI-H460 lung): > 25 µM | GI50 (NCI-H522 lung): 15.4 µM | TGI (NCI-H522 lung): > 25 µM | GI50 (NCI/ADR-RES ovarian): > 25 µM | TGI (NCI/ADR-RES ovarian): > 25 µM | GI50 (OVCAR-3 ovarian): > 25 µM | TGI (OVCAR-3 ovarian): > 25 µM | GI50 (OVCAR-4 ovarian): > 25 µM | TGI (OVCAR-4 ovarian): > 25 µM | GI50 (OVCAR-5 ovarian): > 25 µM | TGI (OVCAR-5 ovarian): > 25 µM | GI50 (OVCAR-8 ovarian): > 25 µM | TGI (OVCAR-8 ovarian): > 25 µM | GI50 (PC-3 prostate): > 25 µM | TGI (PC-3 prostate): > 25 µM | GI50 (RPMI-8226 leukemia): > 15.2 µM | TGI (RPMI-8226 leukemia): > 25 µM | GI50 (RXF 393 renal): > 25 µM | TGI (RXF 393 renal): > 25 µM | GI50 (SF-268 CNS): > 25 µM | TGI (SF-268 CNS): > 25 µM | GI50 (SF-295 CNS): > 25 µM | TGI (SF-295 CNS): > 25 µM | GI50 (SF-539 CNS): > 25 µM | TGI (SF-539 CNS): > 25 µM | GI50 (SK-MEL-2 melanoma): > 25 µM | TGI (SK-MEL-2 melanoma): > 25 µM | GI50 (SK-MEL-28 melanoma): > 25 µM | TGI (SK-MEL-28 melanoma): > 25 µM | GI50 (SK-MEL-5 melanoma): 5.69 µM | TGI (SK-MEL-5 melanoma): > 25 µM | GI50 (SK-OV-3 ovarian): > 25 µM | TGI (SK-OV-3 ovarian): > 25 µM | GI50 (SN12C renal): > 25 µM | TGI (SN12C renal): > 25 µM | GI50 (SNB-19 CNS): > 25 µM | TGI (SNB-19 CNS): > 25 µM | GI50 (SNB-75 CNS): > 25 µM | TGI (SNB-75 CNS): > 25 µM | GI50 (SR leukemia): > 25 µM | TGI (SR leukemia): > 25 µM | GI50 (SW-620 colon): > 25 µM | TGI (SW-620 colon): > 25 µM | GI50 (T-47D breast): 9.94 µM | TGI (T-47D breast): > 25 µM | GI50 (TK-10 renal): > 25 µM | TGI (TK-10 renal): > 25 µM | GI50 (U251 CNS): > 25 µM | TGI (U251 CNS): > 25 µM | GI50 (UACC-257 melanoma): > 25 µM | TGI (UACC-257 melanoma): > 25 µM | GI50 (UACC-62 melanoma): > 25 µM | TGI (UACC-62 melanoma): > 25 µM | GI50 (UO-31 renal): > 25 µM | TGI (UO-31 renal): > 25 µM
